As usually defined, the IC50 is the concentration needed to halve the response being measured. One may read the GI50 as the concentration giving 50% growth inhibition. What is called melting point is the temperature of the solid-liquid transition. Usually MIC stands for the least concentration at which growth counts as inhibited.

Molecules are shown by their SMILES. Values after ≈ are worked out from the molar mass of the structure shown. Values joined by “and” are separate entries in the source; they are usually repeats but may differ in a detail not shown here. Equal values may be shown once. Read-outs that look alike come from different tables or passages of the source.

Data set [1] concerns Trypanosoma cruzi (Tulahuen C4). In words: In vitro anti-T. cruzi activity (β-galactosidase CPRG colorimetric assay in VERO monolayer). It counts as cell-based. As to conditions: for IC50 / inhibition at 10 µg/mL: Trypanosoma cruzi, TULAHUEN, Vero; for T. cruzi Inhib. (%) / inhibition at 10 µg/mL: 10 μg/mL of each compound, 120 hours; for inhibition at 10 µg/mL: 120 h, read-out: T. cruzi Inhib. (%).

For another data set, the system named is 3T3 cells. In words: Cell growth inhibition bioassay (sulforhodamine B). It is filed as cell-based, mouse. The conditions noted are these: 48 h, SRB; for GI50: Mus musculus, NIH3T3, read-out: GI50 in indicated cell line: 3T3. The method, boiled down: (§1)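 Cells were exposed to compound alongside matched solvent controls, then stained with sulforhodamine B. Percent growth inhibition was calculated from dye absorbance against the control.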

The subject of another data set is HT-29 cells. In words: Cell growth inhibition bioassay (sulforhodamine B). It is filed as cell-based, human. The conditions noted are these: 48 h, SRB; for GI50: Homo sapiens, HT-29, read-out: GI50 in indicated cell line: HT-29. The procedure, abridged: as §1
For a further data set, the system named is MCF-7 cells. Briefly: Cell growth inhibition bioassay (sulforhodamine B). It is filed as cell-based, human. The conditions noted are these: 48 h, SRB; for GI50: Homo sapiens, MCF7, read-out: GI50 in indicated cell line: MCF-7. The procedure, abridged:
as §1

The subject of another data set is M-14 cells. Briefly: Cell growth inhibition bioassay (sulforhodamine B). The conditions noted are these: 48 h, SRB; for GI50: Homo sapiens, M14, read-out: GI50 in indicated cell line: M-14. It counts as cell-based, human. The method, boiled down: as §1
Another data set deals with K562 cells. In words: Cell growth inhibition bioassay (sulforhodamine B). It is filed as cell-based, human. As to conditions: 48 h, SRB; for GI50: Homo sapiens, K562, read-out: GI50 in indicated cell line: K562. The method, boiled down:
as §1

For the next data set, the system named is DU145 cells. Briefly: Cell growth inhibition bioassay (sulforhodamine B). It is filed as cell-based, human. The conditions noted are these: 48 h, SRB; for GI50: Homo sapiens, DU-145, read-out: GI50 in indicated cell line: DU145. The method, boiled down: as §1
The test system of another data set is H460 cells. Briefly: Cell growth inhibition bioassay (sulforhodamine B). It is filed as cell-based, human. The conditions noted are these: 48 h, SRB; for GI50: Homo sapiens, NCI-H460, read-out: GI50 in indicated cell line: H460. The method, boiled down:
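SRB colorimetric read-out; % growth inhibition vs solvent control. Human lines: MCF-7 (breast adenocarcinoma), DU145 (prostate carcinoma), PC3 (prostate adenocarcinoma), H460 (large cell lung cancer).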

For the next data set, the system named is PC3 cells. In words: Cell growth inhibition bioassay (sulforhodamine B). It is filed as cell-based. The conditions noted are these: Homo sapiens, PC-3; 48 h, SRB; read-out: GI50 in indicated cell line: PC3. Here is the method: The cytotoxicity of compounds was assayed as follows. […] Appropriate solvent controls were tested for comparison. The percent inhibition of cell growth relative to the control was evaluated colorimetrically using a sulforhodamine B dye by comparison to the control. The calorimetric procedure followed that published in Skehan et al., J. Nat. Cancer Inst., […], pp. 1107-1112 (1990) and Boyd & Paull, Drug Dev. Res., Vol. 34, pp. 91-109 (1995). […] The cell lines are: 3T3 cells are BALB/3T3 clone A31 embryonic mouse fibroblast cells; H460 cells are human large cell lung cancer cells; DU145 cells are human prostate carcinoma cells; MCF-7 cells are human breast adenocarcinoma cells; M-14 cells are human melanoma cells; HT-29 cells are human colon adenocarcinoma cells; PC3 cells are human prostate adenocarcinoma cells; K562 cells are human chronic myelogenous leukemia cells; and VERO cells are African Green Monkey kidney epithelial cells.

In the next data set the test system is VERO cell. Briefly: Cytotoxicity VERO cell (Table 6). The conditions noted are these: Table 6.
In data set [2] the test system is axenic amastigotes of L. amazonensis (strain MHOM/BR/76/LTB-012). As to conditions: Table 8b.
Data set [3] relates to VERO cells. In words: Cell growth inhibition bioassay (sulforhodamine B). It counts as cell-based, African Green Monkey. As to conditions: 48 h, SRB. The method, boiled down:
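Cytotoxicity is read by sulforhodamine B colorimetry following the Skehan protocol; values are growth inhibition relative to solvent-only wells.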

The next data set concerns peritoneal macrophages. In words: Toxicity to peritoneal macrophages (Trypan Blue count). It counts as cell-based, BALB/C mouse.
The test system of data set [4] is non-replicating persistence Mycobacterium tuberculosis (NRP-TB). Briefly: Low oxygen recovery assay (LORA). It counts as cell-based. As to conditions: anaerobic 10 days, 28 hour recovery; value in brackets.
Data set [5] concerns VERO cells. In words: Cytotoxicity on VERO cells (MTT), anti-T. cruzi study. The conditions noted are these: Lab B.
For data set [6], the system named is M. tuberculosis H37Rv. In words: Conventional aerobic (MABA) culture assay, luminescence MIC. It is filed as cell-based, Mycobacterium tuberculosis. The conditions noted are these: aerobic, 7 days, H37Rv.
In data set [7] the test system is axenic amastigotes of L. amazonensis (strain MHOM/BR/76/LTB-012). In words: microbe, parasite or virus in culture. As to conditions: Leishmania amazonensis.
For data set [8], the system named is VERO cells. Briefly: VERO cells IC50 (Table 5). It counts as cell-based, African green monkey. The conditions noted are these: Chlorocebus sabaeus.
The nature of data set [9]: Toxicity to peritoneal macrophages (Trypan Blue count). It is filed as cell-based, BALB/C mouse. The conditions noted are these: BALB/C, mouse.
Data set [10] has as its system M. tuberculosis H37Rv. In words: Anti-tuberculosis bioassay (tetrazolium microplate MIC). As to conditions: Mycobacterium tuberculosis, read-out: Mycobacterium MIC H37Rv, Table 5. It is filed as cell-based.
Data set [11] can be described thus: Cytotoxicity on VERO cells (MTT), anti-T. cruzi study. As to conditions: African green monkey, VERO cells.
Another data set deals with M. tuberculosis MDR. In words: Anti-tuberculosis bioassay (tetrazolium microplate MIC). It counts as cell-based. The conditions noted are these: Mycobacterium tuberculosis, read-out: Mycobacterium MIC MDR.
Setting [12] is: Table 3, read-out: IC50 T. cruzi.

In turn, `COc1ccc(CCC(=O)c2c(O)cc(OC)cc2OC)cc1` [Compound I-03, 1-(2-Hydroxy-4,6-dimethoxyphenyl)-3-(4-methoxyphenyl)-1-propanone] displayed a melting point of 107 °C. Besides, the half-maximal inhibitory concentration (IC50) in [1] (setting [12]) was over 100 µM. Besides, in the data set with 3T3 cells, the 50% growth inhibitory concentration (GI50) is over 197 µM. Besides, the 50% growth inhibitory concentration (GI50) in the data set with HT-29 cells was over 197 µM. Moreover, the GI50 in the data set on MCF-7 cells was over 197 µM. The concentration for 50% growth inhibition (GI50) in the data set with M-14 cells was over 197 µM. Also, in the data set with K562 cells, the GI50 was over 197 µM. The GI50 in the data set on DU145 cells was over 197 µM. The GI50 in the data set with H460 cells was over 197 µM. Further, the GI50 with PC3 cells was over 197 µM.
On to `COc1cc(O)c(C(=O)CCc2ccc3c(c2)OCO3)c(OC)c1` [Compound I-04, 3-(1,3-Benzodioxol-5-yl)-1-(2-hydroxy-4,6-dimethoxyphenyl)-1-propanone], for which the melting point came to 125 °C. Further, in [1], the “T. cruzi Inhib. (%)” value is 12.96% and 3.24%. The IC50 in data set [1] (setting [12]) is over 100 µM. Moreover, the concentration for 50% growth inhibition (GI50) in the data set with 3T3 cells is 21.5 µM. The concentration for 50% growth inhibition (GI50) in the data set on HT-29 cells was found to be 145 µM. In the data set on MCF-7 cells, the GI50 stood at 42.4 µM. The GI50 with M-14 cells came out at 82 µM. The concentration for 50% growth inhibition (GI50) in the data set on K562 cells amounted to 28.2 µM. Moreover, in the data set with DU145 cells, the 50% growth inhibitory concentration (GI50) came to 60.2 µM. For the same molecule, in the data set with H460 cells, the GI50 amounted to 105 µM. The GI50 with PC3 cells amounted to 39.1 µM.
Molecule `COc1ccc(CCC(=O)c2c(O)cc(O)cc2OC)cc1` [Compound I-07, 1-(2,4-Dihydroxy-6-methoxyphenyl)-3-(4-methoxyphenyl)-1-propanone] returned a melting point of 166 °C. Moreover, in data set [1], the “T. cruzi Inhib. (%)” value is listed as 27.74% and the inhibition at 10 µg/mL turned out to be 20.5%. The half-maximal inhibitory concentration (IC50) in [1] (setting [12]) was over 25 µM. In the data set on 3T3 cells, the concentration for 50% growth inhibition (GI50) was over 206 µM. For the same molecule, the concentration for 50% growth inhibition (GI50) in the data set with HT-29 cells was over 206 µM. For the same molecule, the GI50 with MCF-7 cells is 65.5 µM. Moreover, in the data set on M-14 cells, the GI50 was found to be 109 µM. In the data set with K562 cells, the 50% growth inhibitory concentration (GI50) was found to be 22.8 µM. The GI50 with DU145 cells is over 206 µM. For the same molecule, the 50% growth inhibitory concentration (GI50) in the data set with H460 cells was found to be 128 µM. Further, in the data set on PC3 cells, the concentration for 50% growth inhibition (GI50) came to 59.9 µM.
With `FC(F)(F)c1ccccc1C=NNc1ncnc2sc3c(c12)CCCC3` [II-25], in data set [1] (Lab A), the “T. cruzi IC50 Lab A” value came out at 0.5 mg/L. Moreover, the “T. cruzi IC50 Lab B” value in data set [1] (Lab B) was determined as 5.2 mg/L. The “Cytotoxicity VERO cell” value in the data set on VERO cell was 7.6 µg/mL. Also, the “GI50 in indicated cell line: 3T3” value in the data set on 3T3 cells stood at 6.0 mg/L (≈ 15.9 µM). Further, the values for the IC50 (in data set [2] (read-out: L. amazonensis IC50); in the data set on peritoneal macrophages) were 0.4 µM and 1.2 µM, respectively. Further, in the data set on HT-29 cells, the “GI50 in indicated cell line: HT-29” value came out at 1.7 mg/L (≈ 4.52 µM). Besides, in the data set on MCF-7 cells, the “GI50 in indicated cell line: MCF-7” value stood at 1.8 mg/L (≈ 4.78 µM). Moreover, in the data set on M-14 cells, the “GI50 in indicated cell line: M-14” value came out at 2.5 mg/L (≈ 6.64 µM). The “GI50 in indicated cell line: K562” value with K562 cells came to 0.6 mg/L (≈ 1.59 µM). Moreover, the “GI50 in indicated cell line: DU145” value in the data set on DU145 cells was determined as 1.3 mg/L (≈ 3.45 µM). Moreover, in the data set on H460 cells, the “GI50 in indicated cell line: H460” value was found to be 2.0 mg/L (≈ 5.31 µM). The “GI50 in indicated cell line: VERO” value in the data set with VERO cells [3] was 1.7 mg/L (≈ 4.52 µM). For the same molecule, the “MIC LORA” value in [4] was determined as 5.8 mg/L (≈ 15.4 µM). Further, the “Cytotoxicity VERO Lab B” value with VERO cells [5] stood at 3.0. Further, in the data set on M. tuberculosis H37Rv [6], the “MIC MABA” value turned out to be 5.9 mg/L (≈ 15.7 µM).
For `Fc1ccccc1/C=N\Nc1ncnc2sc3c(c12)CCCC3` [II-27], the IC50 in data set [7] (read-out: IC50 Cytotoxicity Against Amastigotes) worked out at 3.2 µM; in data set [7] (read-out: L. amazonensis IC50), 1.1 µM; in data set [1] (Lab B, read-out: T. cruzi IC50 Lab B) it was 3.5 mg/L; in data set [1] (Table 2, read-out: IC50 - T. cruzi) it was 4.37 mg/L; in the data set on VERO cells [8], 27.7 mg/L (≈ 84.9 µM); in data set [11] (Cytotoxicity VERO Lab B, Lab B) it was 6 mg/L (≈ 18.4 µM). In addition, the concentration for half-maximal inhibition (IC50) in data set [11] (IC50 - VERO Cytotoxicity, Table 2) turned out to be 7 mg/L (≈ 21.4 µM). In addition, the “Selectivity Index Lab B” value in data set [1] (IC50, VERO/IC50, T. cruzi, Lab B) is on record as 1.7. In [1], the inhibition at 10 µg/mL is 78.9%. In addition, the GI50 in the data set on 3T3 cells was over 93.8 mg/L; in the data set with HT-29 cells, over 93.8 mg/L; in the data set with MCF-7 cells it was 24.5 mg/L; with M-14 cells it was over 93.8 mg/L; in the data set with K562 cells, 26.5 mg/L; in the data set on DU145 cells, over 93.8 mg/L. Moreover, the GI50 with H460 cells was over 93.8 mg/L; in the data set with VERO cells [3] (Chlorocebus sabaeus, Vero, read-out: GI50 in indicated cell line: VERO) it was over 93.8 mg/L. In addition, the “Selectivity Index” value in [2] is reported as 3.1. For the same molecule, the IC50 at 48 h in data set [9] (Cytotoxicity Macrophages IC50) is 3.3 µM; in data set [9] (IC50 Cytotoxicity Against Macrophages), over 10 µM. Further, the minimum inhibitory concentration (MIC) is 3.12 mg/L (≈ 9.56 µM) with M. tuberculosis H37Rv [10]; over 100 mg/L against M. tuberculosis H37Rv [6] (Mycobacterium tuberculosis, 168 h); 3.12 mg/L (≈ 9.56 µM) in the data set on M. tuberculosis MDR.

The values above are taken from patent publication US9061984B2 (University of Louisville Research Foundation, Inc., priority 2008, dated 2015).
